In US20240103005A1, “N-ACRYLOYLINDOLES AND METHODS OF USE” (The University of Hong Kong, priority 2022, published 2024):

How the values were obtained:
231MFP cells = test: WST-8 cell viability assay; assay type: cell-based
Experimental: WST-8 Cell Viability Assay of Cells Treated with NAIA-4 or IAA
231MFP cells were plated on 96-well plates (Corning, 3904) at 30,000 cells per well and allowed to grow in complete medium overnight. The cells were then incubated with DMSO solvent control, NAIA-4 or IAA at indicated concentrations for 2 h. The solution was replaced with new culture medium containing 10 μL of WST-8 solution (Abcam; ab228554) and incubated for 2 h in dark at 37° C. Cell viability were then assayed by the absorption at 460 nm on SpectraMax i3 (Molecular Devices).

HepG2 cell lysates = test: Gel-based ABPP, in vitro Cys labeling of HepG2 cell lysates (in-gel fluorescence); assay type: biochemical
Experimental: In-Gel Fluorescence for Visualizing Cys Labeling by NAIAs and IAA In Vitro
HepG2 or 231MFP cells were lysed by probe sonication in DPBS, and cell debris were removed by centrifugation at 1,000 g for 5 min. Protein concentration of the lysates was determined by bicinchoninic acid (BCA) assay, and the lysates were then diluted to 2 mg/mL by DPBS. 50 μL of the lysates were incubated with indicated concentrations of NAIA-4, NAIA-5 or IAA for indicated time interval at room temperature. […] Samples were then separated by molecular weight on precast 4-20% TGX gels (Thermo Scientific) and scanned by ChemiDoc MP (Bio-Rad Laboratories, Inc) for measuring in-gel fluorescence. […]
With the in vitro characterization data in hand, we next moved to investigate the ability of NAIA in labeling functional cysteines in cell lysates and live cells. […] After the reaction, the protein mixture was resolved by sodium dodecyl sulphate-polyacrylamide gel electrophoresis (SDS-PAGE) and in-gel fluorescence was measured. […] The fluorescence intensity from these labeled protein bands can then reflect the degree of cysteine labeling by the probes. […]

SMILES | cytotoxicity (in words) (231MFP cells) | cysteine labeling (in-gel fluorescence) compared with IAA, time-dependent (HepG2 cell lysates; 1 and 10 μM, 15 and 30 min) | cysteine labeling (in-gel fluorescence) compared with IAA (HepG2 cell lysates; 1 h incubation, three doses)
C#CCCCCNC(=O)CI [IAA, N-Hex-5-ynyl-2-iodoacetamide, reference compound] | high cellular cytotoxicity |  | 
C#CCCCCNC(=O)COc1ccc2c(ccn2C(=O)C=C)c1 [NAIA-5] |  | more cysteine labeling by NAIA-5 than IAA was found at 1 and 10 μM for both 15 and 30 min incubation | more cysteine labeling than IAA at all the three doses tested
